For 18 molecules, Ki results are on record in ChEMBL document CHEMBL2034840, “Automated generation of turn mimetics: proof of concept study for the MC4 receptor” (Bioorg Med Chem, 2012).

SMILES strings stand for the structures.

The target in this experiment is Melanocortin receptor 4 (Homo sapiens, UniProt P32245). The experiment is described as follows: Displacement of [125I]NDPMSH from human MC4 receptor expressed in HEK293 cells after 2 hrs by liquid scintillation counting. It is filed as cell-based.
Melanocortin receptor 4, sequence (P32245 whole entry): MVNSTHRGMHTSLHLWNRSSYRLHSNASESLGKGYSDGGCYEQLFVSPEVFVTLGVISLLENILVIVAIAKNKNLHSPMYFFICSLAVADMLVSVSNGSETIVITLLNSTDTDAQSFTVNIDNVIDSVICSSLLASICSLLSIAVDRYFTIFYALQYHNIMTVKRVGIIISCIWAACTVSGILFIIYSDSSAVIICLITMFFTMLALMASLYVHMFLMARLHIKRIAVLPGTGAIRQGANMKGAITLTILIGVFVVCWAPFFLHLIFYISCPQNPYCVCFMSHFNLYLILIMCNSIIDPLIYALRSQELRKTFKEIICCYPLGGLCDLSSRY

A word on the Ki: it is the dissociation constant of the complex between target and ligand, obtained from inhibition or displacement. Read a low Ki as higher affinity. As for `O=C(NCCCc1ccccc1)[C@H]1CNC[C@H]1C(=O)NCc1ccc(C(F)(F)F)cc1`, the Ki was found to be 5800 nM.
Still for that read-out and setting: next, `O=C(CNC(=O)[C@H]1CNC[C@H]1C(=O)NCCc1c[nH]c2ccccc12)c1ccccc1`: 5500 nM.
Same read-out and setting: the value for `O=C(NCc1ccccc1)[C@H]1CNC[C@H]1C(=O)NCCc1c[nH]c2ccccc12` was 5500 nM; that for `O=C(NCc1ccccc1)[C@@H]1CNC[C@H]1C(=O)NCc1ccccc1` was 900 nM.
The same measure, in the same setting: the value for `O=C(NCCc1ccccc1)[C@@H]1CNC[C@H]1C(=O)NCc1ccccc1` was 1000 nM; that for `NCCNC(=O)[C@@H]1CNC[C@H]1C(=O)NC(=O)c1ccccc1` was 5300 nM; that for `O=C(NCc1ccccc1)[C@@H]1CNC[C@H]1C(=O)Nc1cccc(-c2ccccc2)c1` was 6600 nM.
For `O=C(NCCc1ccccc1)[C@H]1CNC[C@H]1C(=O)NC1CCN(Cc2ccccc2)C1` (mixture of isomers), the Ki (hek293) was 5000 nM.
`O=C(NCCc1cccc(F)c1)[C@H]1CN(CC2CC2)C[C@H]1C(=O)NC1CCN(Cc2ccccc2)C1` (mixture of isomers) had a Ki of 1800 nM.
As to `O=C(NCCc1cccc(Cl)c1)[C@H]1CN(CC2CC2)C[C@H]1C(=O)NC1CCN(Cc2ccccc2)C1` (mixture of isomers), the inhibitory constant (Ki) amounted to 670 nM.
`O=C(NCCc1ccc(Cl)cc1)[C@H]1CN(CC2CC2)C[C@H]1C(=O)NC1CCN(Cc2ccccc2)C1` (mixture of isomers) showed a Ki of 380 nM.
Still for that read-out and setting: next, `O=C(NCCc1ccc(Cl)cc1Cl)[C@H]1CN(CC2CC2)C[C@H]1C(=O)NC1CCN(Cc2ccccc2)C1` (mixture of isomers): 160 nM; `O=C(NCc1cccc(Cl)c1)[C@H]1CN(CC2CC2)C[C@H]1C(=O)NC1CCN(Cc2ccccc2)C1` (mixture of isomers): 400 nM.
Still for that read-out and setting: next, `O=C(NCc1ccc(Cl)cc1Cl)[C@H]1CN(CC2CC2)C[C@H]1C(=O)NC1CCN(Cc2ccccc2)C1` (mixture of isomers): 70 nM; `O=C(NCCc1ccccc1)[C@H]1CN(CC2CC2)C[C@H]1C(=O)NC1CCN(Cc2ccccc2)C1` (mixture of isomers): 2600 nM; `O=C(NCCc1ccccc1)[C@H]1CN(CCO)C[C@H]1C(=O)NC1CCN(Cc2ccccc2)C1` (mixture of isomers): 6200 nM.
Still for that read-out and setting: next, `O=C(NCCc1ccccc1)[C@H]1CN(CCOc2ccccc2)C[C@H]1C(=O)NC1CCN(Cc2ccccc2)C1` (mixture of isomers): 1000 nM; `O=C(NCCc1ccccc1)[C@H]1CNC[C@H]1C(=O)NC1CCN(Cc2ccccc2)C1` (stereo in doubt; 3a): 5000 nM.
